Measurements reported in BigSolDB 2.1.

CC1=NN(c2ccc(C)cc2)C(=O)C1
Conditions	solubility (mole fraction)
in 1,4-dioxane, 283.15 K	0.0337
in 1,4-dioxane, 285.65 K	0.0367
in 1,4-dioxane, 288.15 K	0.0399
in 1,4-dioxane, 290.65 K	0.0432
in 1,4-dioxane, 293.15 K	0.047
in 1,4-dioxane, 295.65 K	0.0507
in 1,4-dioxane, 298.15 K	0.0549
in 1,4-dioxane, 300.65 K	0.0591
in 1,4-dioxane, 303.15 K	0.0638
in 1,4-dioxane, 305.65 K	0.0683
in 1,4-dioxane, 308.15 K	0.0737
in 1,4-dioxane, 310.65 K	0.0791
in 1,4-dioxane, 313.15 K	0.0849
in acetonitrile, 278.15 K	0.00534
in acetonitrile, 280.65 K	0.00596
in acetonitrile, 283.15 K	0.00668
in acetonitrile, 285.65 K	0.00746
in acetonitrile, 288.15 K	0.0083
in acetonitrile, 290.65 K	0.00927
in acetonitrile, 293.15 K	0.0104
in acetonitrile, 295.65 K	0.0115
in acetonitrile, 298.15 K	0.0128
in acetonitrile, 300.65 K	0.0142
in acetonitrile, 303.15 K	0.0157
in acetonitrile, 305.65 K	0.0173
in acetonitrile, 308.15 K	0.0192
in acetonitrile, 310.65 K	0.0213
in acetonitrile, 313.15 K	0.0235
in cyclohexane, 283.15 K	0.000488
in cyclohexane, 285.65 K	0.000558
in cyclohexane, 288.15 K	0.000626
in cyclohexane, 290.65 K	0.000714
in cyclohexane, 293.15 K	0.000802
in cyclohexane, 295.65 K	0.000902
in cyclohexane, 298.15 K	0.00102
in cyclohexane, 300.65 K	0.00114
in cyclohexane, 303.15 K	0.00128
in cyclohexane, 305.65 K	0.00142
in cyclohexane, 308.15 K	0.00161
in cyclohexane, 310.65 K	0.00179
in cyclohexane, 313.15 K	0.002
in ethanol, 278.15 K	0.0146
in ethanol, 280.65 K	0.0161
in ethanol, 283.15 K	0.0176
in ethanol, 285.65 K	0.0191
in ethanol, 288.15 K	0.0209
in ethanol, 290.65 K	0.0229
in ethanol, 293.15 K	0.0248
in ethanol, 295.65 K	0.027
in ethanol, 298.15 K	0.0294
in ethanol, 300.65 K	0.0319
in ethanol, 303.15 K	0.0345
in ethanol, 305.65 K	0.0372
in ethanol, 308.15 K	0.0403
in ethanol, 310.65 K	0.0436
in ethanol, 313.15 K	0.0471
in ethyl acetate, 278.15 K	0.0171
in ethyl acetate, 280.65 K	0.0188
in ethyl acetate, 283.15 K	0.0207
in ethyl acetate, 285.65 K	0.0226
in ethyl acetate, 288.15 K	0.0247
in ethyl acetate, 290.65 K	0.0271
in ethyl acetate, 293.15 K	0.0294
in ethyl acetate, 295.65 K	0.032
in ethyl acetate, 298.15 K	0.0349
in ethyl acetate, 300.65 K	0.0378
in ethyl acetate, 303.15 K	0.041
in ethyl acetate, 305.65 K	0.0444
in ethyl acetate, 308.15 K	0.0481
in ethyl acetate, 310.65 K	0.052
in ethyl acetate, 313.15 K	0.0562
in ethylbenzene, 278.15 K	0.0109
in ethylbenzene, 280.65 K	0.012
in ethylbenzene, 283.15 K	0.0132
in ethylbenzene, 285.65 K	0.0146
in ethylbenzene, 288.15 K	0.016
in ethylbenzene, 290.65 K	0.0175
in ethylbenzene, 293.15 K	0.0193
in ethylbenzene, 295.65 K	0.0211
in ethylbenzene, 298.15 K	0.0231
in ethylbenzene, 300.65 K	0.0253
in ethylbenzene, 303.15 K	0.0276
in ethylbenzene, 305.65 K	0.0301
in ethylbenzene, 308.15 K	0.0327
in ethylbenzene, 310.65 K	0.0356
in ethylbenzene, 313.15 K	0.0387
in isopentanol, 278.15 K	0.0303
in isopentanol, 280.65 K	0.0335
in isopentanol, 283.15 K	0.037
in isopentanol, 285.65 K	0.041
in isopentanol, 288.15 K	0.0449
in isopentanol, 290.65 K	0.0492
in isopentanol, 293.15 K	0.0542
in isopentanol, 295.65 K	0.0593
in isopentanol, 298.15 K	0.0646
in isopentanol, 300.65 K	0.0705
in isopentanol, 303.15 K	0.0769
in isopentanol, 305.65 K	0.0835
in isopentanol, 308.15 K	0.0906
in isopentanol, 310.65 K	0.0982
in isopentanol, 313.15 K	0.106
in isopropanol, 278.15 K	0.0116
in isopropanol, 280.65 K	0.0127
in isopropanol, 283.15 K	0.014
in isopropanol, 285.65 K	0.0153
in isopropanol, 288.15 K	0.0168
in isopropanol, 290.65 K	0.0184
in isopropanol, 293.15 K	0.02
in isopropanol, 295.65 K	0.0218
in isopropanol, 298.15 K	0.0238
in isopropanol, 300.65 K	0.0259
in isopropanol, 303.15 K	0.0281
in isopropanol, 305.65 K	0.0305
in isopropanol, 308.15 K	0.033
in isopropanol, 310.65 K	0.0358
in isopropanol, 313.15 K	0.0387
in methanol, 278.15 K	0.0152
in methanol, 280.65 K	0.0168
in methanol, 283.15 K	0.0183
in methanol, 285.65 K	0.02
in methanol, 288.15 K	0.0221
in methanol, 290.65 K	0.024
in methanol, 293.15 K	0.0262
in methanol, 295.65 K	0.0287
in methanol, 298.15 K	0.0312
in methanol, 300.65 K	0.034
in methanol, 303.15 K	0.0367
in methanol, 305.65 K	0.0398
in methanol, 308.15 K	0.0432
in methanol, 310.65 K	0.0468
in methanol, 313.15 K	0.0506
in n-butanol, 278.15 K	0.0188
in n-butanol, 280.65 K	0.0206
in n-butanol, 283.15 K	0.0226
in n-butanol, 285.65 K	0.0247
in n-butanol, 288.15 K	0.0271
in n-butanol, 290.65 K	0.0294
in n-butanol, 293.15 K	0.032
in n-butanol, 295.65 K	0.0349
in n-butanol, 298.15 K	0.0377
in n-butanol, 300.65 K	0.041
in n-butanol, 303.15 K	0.0444
in n-butanol, 308.15 K	0.0518
in n-butanol, 310.65 K	0.056
in n-butanol, 313.15 K	0.0603
in n-propanol, 278.15 K	0.0177
in n-propanol, 280.65 K	0.0194
in n-propanol, 283.15 K	0.0213
in n-propanol, 285.65 K	0.0232
in n-propanol, 288.15 K	0.0254
in n-propanol, 290.65 K	0.0276
in n-propanol, 293.15 K	0.0301
in n-propanol, 295.65 K	0.0326
in n-propanol, 298.15 K	0.0353
in n-propanol, 300.65 K	0.0384
in n-propanol, 303.15 K	0.0414
in n-propanol, 305.65 K	0.0448
in n-propanol, 308.15 K	0.0483
in n-propanol, 310.65 K	0.0522
in n-propanol, 313.15 K	0.0561
in toluene, 278.15 K	0.00985
in toluene, 280.65 K	0.0109
in toluene, 283.15 K	0.012
in toluene, 285.65 K	0.0133
in toluene, 288.15 K	0.0147
in toluene, 290.65 K	0.0161
in toluene, 293.15 K	0.0176
in toluene, 295.65 K	0.0193
in toluene, 298.15 K	0.021
in toluene, 300.65 K	0.023
in toluene, 303.15 K	0.025
in toluene, 305.65 K	0.0273
in toluene, 308.15 K	0.0298
in toluene, 310.65 K	0.0323
in toluene, 313.15 K	0.0351
